Laboratory results from the supplement of paper PMC10307832.

Key:
Experiment in all cases: relative viability (nuclei count vs DMSO), 5 days (fraction); higher = more cells survive
NCI-H358 = test system: NCI-H358
How it was run: (§1)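 Lung cancer cell lines were pin-tool dosed in 1536-well plates on the day after seeding, with either a lone drug or a fixed anchor-drug dose plus five library-drug doses (not always all listed) in √10 steps. Nuclei were counted on 4× images after 5 days. Relative viability is the ratio of treated-well to vehicle-well nuclei counts, with each value a median of duplicate plates.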

NCI-H838 = test system: NCI-H838
How it was run: as §1

HCC-15 = test system: HCC-15
How it was run: as §1

NCI-H1993 = test system: NCI-H1993
How it was run: as §1

NCI-H2126 = test system: NCI-H2126
How it was run: as §1

LU99A = test system: LU99A
How it was run: as §1

ABC-1 = test system: ABC-1
How it was run: as §1

NCI-H2347 = test system: NCI-H2347
How it was run: as §1

UMC-11 = test system: UMC-11
How it was run: as §1

NCI-H2023 = test system: NCI-H2023
How it was run: as §1

HARA = test system: HARA
How it was run: as §1

NCI-H1355 = test system: NCI-H1355
How it was run: as §1

NCI-H1651 = test system: NCI-H1651
How it was run: as §1

NCI-H650 = test system: NCI-H650
How it was run: as §1

HOP-62 = test system: HOP-62
How it was run: as §1

COR-L23 = test system: COR-L23
How it was run: as §1

PC-14 = test system: PC-14
How it was run: as §1

EPLC-272H = test system: EPLC-272H
How it was run: as §1

NCI-H2085 = test system: NCI-H2085
How it was run: as §1

HCC-44 = test system: HCC-44
How it was run: as §1

LC-2-ad = test system: LC-2-ad
How it was run: as §1

SW 1573 = test system: SW 1573
How it was run: as §1

NCI-H1915 = test system: NCI-H1915
How it was run: as §1

`O=c1cc(N2CCOCC2)oc2c(-c3cccc4c3sc3ccccc34)cccc12` + CCNC(=O)c1noc(-c2cc(C(C)C)c(O)cc2O)c1-c1ccc(CN2CCOCC2)cc1 [Luminespib] (partner 0.01 µM) showed a relative viability (NCI-H358; first compound 0.01 µM) of 0.235, a relative viability (NCI-H358; first compound 0.03162 µM) of 0.397 and a relative viability (NCI-H358; first compound 0.1 µM) of 0.33. It also gave a relative viability (NCI-H358; first compound 0.3162 µM) of 0.229, a relative viability (NCI-H358; first compound 1 µM) of 0.332 and a relative viability (NCI-H838; first compound 0.01 µM) of 0.347. The relative viability (NCI-H838; first compound 0.03162 µM) was 0.362, the relative viability (NCI-H838; first compound 0.1 µM) was 0.406 and the relative viability (NCI-H838; first compound 0.3162 µM) was 0.294. The relative viability (NCI-H838; first compound 1 µM) was 0.287, the relative viability (HCC-15; first compound 0.01 µM) was 0.301 and the relative viability (HCC-15; first compound 0.03162 µM) was 0.294. It also gave a relative viability (HCC-15; first compound 0.1 µM) of 0.604, a relative viability (HCC-15; first compound 0.3162 µM) of 0.339 and a relative viability (HCC-15; first compound 1 µM) of 0.344. For the same compound, the relative viability (NCI-H1993; first compound 0.01 µM) was 0.585, the relative viability (NCI-H1993; first compound 0.03162 µM) was 0.891 and the relative viability (NCI-H1993; first compound 0.1 µM) was 0.984. The relative viability (NCI-H1993; first compound 0.3162 µM) was 0.697, the relative viability (NCI-H1993; first compound 1 µM) was 0.813 and the relative viability (NCI-H2126; first compound 0.01 µM) was 0.923. For the same compound, the relative viability (NCI-H2126; first compound 0.03162 µM) was 0.893, the relative viability (NCI-H2126; first compound 0.1 µM) was 0.922 and the relative viability (NCI-H2126; first compound 0.3162 µM) was 0.93. It also gave a relative viability (NCI-H2126; first compound 1 µM) of 0.756, a relative viability (LU99A; first compound 0.01 µM) of 0.266 and a relative viability (LU99A; first compound 0.03162 µM) of 0.23. For the same compound, the relative viability (LU99A; first compound 0.1 µM) was 0.232, the relative viability (LU99A; first compound 0.3162 µM) was 0.267 and the relative viability (LU99A; first compound 1 µM) was 0.183. For the same compound, the relative viability (ABC-1; first compound 0.01 µM) was 0.458, the relative viability (ABC-1; first compound 0.03162 µM) was 0.452 and the relative viability (ABC-1; first compound 0.1 µM) was 0.796. For the same compound, the relative viability (ABC-1; first compound 0.3162 µM) was 0.501, the relative viability (ABC-1; first compound 1 µM) was 0.53 and the relative viability (NCI-H2347; first compound 0.01 µM) was 0.571. For the same compound, the relative viability (NCI-H2347; first compound 0.03162 µM) was 0.383, the relative viability (NCI-H2347; first compound 0.1 µM) was 0.641 and the relative viability (NCI-H2347; first compound 0.3162 µM) was 0.409. It also gave a relative viability (NCI-H2347; first compound 1 µM) of 0.323, a relative viability (UMC-11; first compound 0.01 µM) of 0.971 and a relative viability (UMC-11; first compound 0.03162 µM) of 0.997. The relative viability (UMC-11; first compound 0.1 µM) was 1.12, the relative viability (UMC-11; first compound 0.3162 µM) was 0.986 and the relative viability (UMC-11; first compound 1 µM) was 0.982. It also gave a relative viability (NCI-H2023; first compound 0.01 µM) of 0.672, a relative viability (NCI-H2023; first compound 0.03162 µM) of 0.72 and a relative viability (NCI-H2023; first compound 0.1 µM) of 0.793. For the same compound, the relative viability (NCI-H2023; first compound 0.3162 µM) was 0.859, the relative viability (NCI-H2023; first compound 1 µM) was 0.588 and the relative viability (HARA; first compound 0.01 µM) was 0.682. For the same compound, the relative viability (HARA; first compound 0.03162 µM) was 0.679, the relative viability (HARA; first compound 0.1 µM) was 0.806 and the relative viability (HARA; first compound 0.3162 µM) was 0.771. For the same compound, the relative viability (HARA; first compound 1 µM) was 0.905, the relative viability (NCI-H1355; first compound 0.01 µM) was 0.815 and the relative viability (NCI-H1355; first compound 0.03162 µM) was 0.708. The relative viability (NCI-H1355; first compound 0.1 µM) was 0.669, the relative viability (NCI-H1355; first compound 0.3162 µM) was 0.728 and the relative viability (NCI-H1355; first compound 1 µM) was 0.688. It also gave a relative viability (NCI-H1651; first compound 0.01 µM) of 0.777, a relative viability (NCI-H1651; first compound 0.03162 µM) of 0.736 and a relative viability (NCI-H1651; first compound 0.1 µM) of 0.824. For the same compound, the relative viability (NCI-H1651; first compound 0.3162 µM) was 0.712, the relative viability (NCI-H1651; first compound 1 µM) was 0.807 and the relative viability (NCI-H650; first compound 0.03162 µM) was 0.846. For the same compound, the relative viability (NCI-H650; first compound 0.1 µM) was 0.638, the relative viability (NCI-H650; first compound 0.3162 µM) was 0.917 and the relative viability (NCI-H650; first compound 1 µM) was 0.813. For the same compound, the relative viability (HOP-62; first compound 0.01 µM) was 1.05, the relative viability (HOP-62; first compound 0.03162 µM) was 0.822 and the relative viability (HOP-62; first compound 0.1 µM) was 0.842. The relative viability (HOP-62; first compound 0.3162 µM) was 1.03, the relative viability (HOP-62; first compound 1 µM) was 0.974 and the relative viability (COR-L23; first compound 0.01 µM) was 0.763. The relative viability (COR-L23; first compound 0.03162 µM) was 0.654, the relative viability (COR-L23; first compound 0.1 µM) was 0.724 and the relative viability (COR-L23; first compound 0.3162 µM) was 0.608. For the same compound, the relative viability (COR-L23; first compound 1 µM) was 0.779, the relative viability (PC-14; first compound 0.03162 µM) was 0.151 and the relative viability (PC-14; first compound 0.3162 µM) was 0.197. The relative viability (PC-14; first compound 1 µM) was 0.135, the relative viability (EPLC-272H; first compound 0.01 µM) was 0.244 and the relative viability (EPLC-272H; first compound 0.03162 µM) was 0.449. For the same compound, the relative viability (EPLC-272H; first compound 0.3162 µM) was 0.19, the relative viability (EPLC-272H; first compound 1 µM) was 0.281 and the relative viability (NCI-H2085; first compound 0.01 µM) was 0.407. It also gave a relative viability (NCI-H2085; first compound 0.03162 µM) of 0.427, a relative viability (NCI-H2085; first compound 0.1 µM) of 0.534 and a relative viability (NCI-H2085; first compound 0.3162 µM) of 0.49. It also gave a relative viability (NCI-H2085; first compound 1 µM) of 0.48, a relative viability (HCC-44; first compound 0.01 µM) of 1.02 and a relative viability (HCC-44; first compound 0.03162 µM) of 1.01. It also gave a relative viability (HCC-44; first compound 0.1 µM) of 1.31, a relative viability (HCC-44; first compound 0.3162 µM) of 0.998 and a relative viability (HCC-44; first compound 1 µM) of 1.11. For the same compound, the relative viability (LC-2-ad; first compound 0.01 µM) was 1.04, the relative viability (LC-2-ad; first compound 0.03162 µM) was 1.12 and the relative viability (LC-2-ad; first compound 0.1 µM) was 0.978. It also gave a relative viability (LC-2-ad; first compound 0.3162 µM) of 1.03, a relative viability (LC-2-ad; first compound 1 µM) of 1.13 and a relative viability (SW 1573; first compound 0.01 µM) of 0.419. For the same compound, the relative viability (SW 1573; first compound 0.03162 µM) was 0.205, the relative viability (SW 1573; first compound 0.1 µM) was 0.211 and the relative viability (SW 1573; first compound 0.3162 µM) was 0.735. The relative viability (SW 1573; first compound 1 µM) was 0.218, the relative viability (NCI-H1915; first compound 0.01 µM) was 0.875 and the relative viability (NCI-H1915; first compound 0.03162 µM) was 0.831. The relative viability (NCI-H1915; first compound 0.1 µM) was 0.807, the relative viability (NCI-H1915; first compound 0.3162 µM) was 0.791 and the relative viability (NCI-H1915; first compound 1 µM) was 0.855.
